Legend:
[1] = molecular target: T1, MPO activity in atherosclerotic plaque (Mus musculus, UniProt P11247); conditions: for CNR of unstable plaque in the right carotid artery, 30 min after contrast injection / CNR of unstable plaque in the right carotid artery, 60 min after contrast injection: mean±SD
T1 sequence (P11247 139-718): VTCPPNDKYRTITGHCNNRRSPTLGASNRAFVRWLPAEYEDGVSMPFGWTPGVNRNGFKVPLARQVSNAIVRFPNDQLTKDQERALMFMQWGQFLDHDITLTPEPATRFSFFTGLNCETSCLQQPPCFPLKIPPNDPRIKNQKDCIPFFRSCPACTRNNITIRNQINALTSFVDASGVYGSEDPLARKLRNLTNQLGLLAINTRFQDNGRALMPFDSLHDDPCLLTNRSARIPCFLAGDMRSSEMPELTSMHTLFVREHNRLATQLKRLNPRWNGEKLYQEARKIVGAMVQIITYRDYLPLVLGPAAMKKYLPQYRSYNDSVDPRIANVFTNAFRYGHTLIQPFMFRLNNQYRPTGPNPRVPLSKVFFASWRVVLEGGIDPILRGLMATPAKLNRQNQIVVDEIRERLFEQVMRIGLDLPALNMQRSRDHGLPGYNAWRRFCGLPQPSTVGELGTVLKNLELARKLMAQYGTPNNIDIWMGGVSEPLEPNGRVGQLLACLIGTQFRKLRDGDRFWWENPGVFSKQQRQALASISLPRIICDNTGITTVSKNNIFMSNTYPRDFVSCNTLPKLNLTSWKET
Source text: Scheme of action of bis-5HT-DTPA-Gd (MPO-Gd) and magnetic resonance imaging protocol. A, In the presence of H2O2, MPO oxidises the 5-hydroxytryptamine moiety of MPO-Gd to a phenoxyl radical, which then can give rise to either an MPO-Gd dimer or multimer (not shown) to amplify the signal. The phenoxyl radical-containing MPO-Gd may also covalently bind to proteins. […] B, Mice were imaged under isoflurane anaesthesia. Initial acquisition involved a localiser, time-of-flight and T1-weighted turbo spin echo (T1-TSE) imaging. Approximately 30 μmin after acquisition of baseline images, MPO-Gd (0.3 mmol/kg) was injected intravenously via the tail vein. Consecutive T1-TSE images were then acquired for 60 μmin following contrast injection. Segmental analysis of MPO activity was assessed by calculating the ΔCNR (CNRpost-contrast−CNRpre-contrast) for unstable and stable plaque, and non-diseased arterial segments.
At 7 weeks following TS surgery, isoflurane-anaesthetised mice were imaged in the prone position using a 9.4T Bruker Biospec 94/20 Avance III system (Bruker, Ettlingen, Germany) with a 50-mm quadrature radiofrequency coil and respiratory-gated image acquisition. Mice were imaged before and after intravenous administration of 0.3 μmmol/kg of the MPO sensor bis-5-hydroxytryptamide-DTPA Gd (MPO-Gd) or DTPA-Gd (Magnevist, Bayer, Leverkusen, Germany) via a tail vein catheter. Prior to contrast injection, a flow-compensated 2D-FLASH time-of-flight (TOF) angiography in a coronal slice orientation was performed to assess intra-vessel (luminal) volume and geometry using a flow compensated 2D-GRE sequence (FLASH) for time-of-flight (TOF) angiography in an axial slice orientation with the following major parameters: TR 34 μms, TE 3 μms, slice thickness 0.5 μmm, interslice distance 0.35 μmm, 40 slices, matrix size 128×128, FOV 20×20 μmm, in-plane resolution 156×156 μm. This was followed by a T1-weighted fast spin echo (TurboRARE, T1-TSE) acquired in the same orientation with the following parameters: TR 1500 μms, TE 8.5 μms, ETL 8, slice thickness 1 μmm, FOV 20×20 μmm, matrix size 192×192, in-plane resolution 104×104 μm. This T1-TSE protocol was then repeated in a scan series covering a period of one hour following contrast injection to assess contrast agent inflow and retention. OsiriX (Version 7.0, Pixmeo, Switzerland) was used for image analysis. In T1-TSE images, separate regions of interest were assigned to the vessel wall, skeletal muscle (reference) and background (air). The contrast-to-noise ratio (CNR) was calculated as follows: CNR=(SIvessel wall−SIskeletal muscle)/SDbackground The mean CNRs of three consecutive slices in plaque with unstable phenotype and corresponding segments of the left carotid artery (plaque-free), in addition to 1-2 consecutive slices in the brachiocephalic trunk (stable plaque, SP), were calculated. Segmental enhancement attributable to MPO was assessed by calculating the ΔCNR=CNRpost-contrast−CNRpre-contrast.

[2] = mouse, in vivo
Procedure: Nuclear microscopy experiments were performed at the Centre for Ion Beam Applications at the National University of Singapore, as described previously.6 Briefly, the samples were mounted onto a 3-axis stage within a scattering chamber maintained at <5×10−6 μmbar. A collimated proton beam (H+) at 2.1 MeV was generated using a 3.5 MV Singletron accelerator and kept incident onto the samples inclined at 45 degrees to the incident beam. The broad incident ion beam was focused down to a spot size of 1 μm and scanned across the region of interest. […]
PIXE data was collected using a Si(Li) detector placed at 20 μmm from the samples to the Si(Li) crystal face. RBS and STIM data were measured by a passivated implanted planar silicon (PIPS) detector. […]
Scanning transmission ion microscopy provides structural maps based on the energy lost by the protons as they pass through the relatively thin organic samples with thicknesses of 30 μm or less, enabling structural identification without fixing or staining. Trace elemental mapping was performed using particle-induced X-ray emission, which simultaneously provides multiple elements with high quantitative accuracy and sensitivity to a few parts per million in biological materials. […]

[3] = TS Apoe−/− mice, 0.3 mmol/kg i.v.

CNR of unstable plaque in the right carotid artery, 30 min after contrast injection [1, 3] | CNR of unstable plaque in the right carotid artery, 60 min after contrast injection [1, 3] | enhancement of the right carotid artery in TS Mpo−/−Apoe−/− mice ([1]; 60 min, compared with Apoe−/− mice) | enhancement of the non-diseased vessel wall of the left carotid artery [1, 3] | period within which the enhancing material is washed out/eliminated from Segment I ([1]; mouse, in vivo) | plaque specificity of enhancement 1 week after TS surgery ([1]; unstable plaque (Segment I) vs stable plaque (brachiocephalic artery)) | Gd content of unstable plaque [2] | Structure (SMILES) | enhancement of the brachiocephalic artery (stable plaque) [1, 3]
19.2±7.2 | 13.4±3.6 |  |  |  |  |  | CNC[C@H](O)[C@@H](O)[C@H](O)[C@H](O)CO.CNC[C@H](O)[C@@H](O)[C@H](O)[C@H](O)CO.O=C([O-])CN(CCN(CC(=O)[O-])CC(=O)O)CCN(CC(=O)[O-])CC(=O)O.[Gd+3] [DTPA-Gd] | 
23.7±6.8 | 25±6.4 | attenuated enhancement | no significant enhancement | < 2 weeks | seen only in unstable plaque | significant accumulation of Gd | O=C([O-])CN(CCN(CC(=O)[O-])CC(=O)NCCc1c[nH]c2ccc(O)cc12)CCN(CC(=O)[O-])CC(=O)NCCc1c[nH]c2ccc(O)cc12.[Gd+3] [MPO-Gd, bis-5-hydroxytryptamide-DTPA Gd] | did not result in significant sustained enhancement
